Laboratory results as given in ChEMBL document CHEMBL3585279, “Novel 2,5-disubtituted-1,3,4-oxadiazoles with benzimidazole backbone: a new class of β-glucuronidase inhibitors and in silico studies” (Bioorg Med Chem, 2015).

These molecules were tested against T1, Beta-glucuronidase (Homo sapiens, UniProt P08236).
T1 sequence (P08236 whole entry): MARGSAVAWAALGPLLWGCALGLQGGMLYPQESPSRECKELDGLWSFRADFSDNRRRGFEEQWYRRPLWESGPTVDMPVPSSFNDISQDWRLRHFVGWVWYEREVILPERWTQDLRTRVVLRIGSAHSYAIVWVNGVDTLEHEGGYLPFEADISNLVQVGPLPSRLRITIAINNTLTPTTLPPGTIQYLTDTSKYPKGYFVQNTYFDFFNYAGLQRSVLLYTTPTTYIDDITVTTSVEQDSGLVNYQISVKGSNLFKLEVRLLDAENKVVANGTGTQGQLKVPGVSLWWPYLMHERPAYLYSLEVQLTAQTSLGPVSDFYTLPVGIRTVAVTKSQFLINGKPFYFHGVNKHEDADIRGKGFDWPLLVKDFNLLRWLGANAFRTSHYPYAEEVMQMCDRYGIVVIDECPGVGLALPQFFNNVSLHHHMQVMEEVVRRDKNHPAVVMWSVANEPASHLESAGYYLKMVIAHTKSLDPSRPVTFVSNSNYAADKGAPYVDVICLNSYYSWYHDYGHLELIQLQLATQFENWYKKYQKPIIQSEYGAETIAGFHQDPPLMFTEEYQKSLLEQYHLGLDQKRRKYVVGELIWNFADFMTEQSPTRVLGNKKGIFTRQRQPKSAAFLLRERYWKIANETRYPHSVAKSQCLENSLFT
Description: Inhibition of beta-D-glucuronidase (unknown origin) assessed as reduction in p-nitrophenol formation using p-nitrophenyl-beta-D-glucuronide substarte incubated at 37 degC for 30 mins by spectrophotometric method

Row | Compound | IC50
1 | Cc1cc2nc(-c3ccc(-c4nnc(-c5ccccc5C)o4)cc3)[nH]c2cc1C | Not Active
2 | Cc1cccc(-c2nnc(-c3ccc(-c4nc5cc(C)c(C)cc5[nH]4)cc3)o2)c1 | Not Active
3 | COc1ccc(-c2nnc(-c3ccc(-c4nc5cc(C)c(C)cc5[nH]4)cc3)o2)cc1 | Not Active
